Holding throughout (format): cell-based
The subject of test [1] is Escherichia Coli (EC) CIP 53.126. Description: ASTM E2149 shake flask method, antibacterial log reduction, E. coli. Conditions: log(T0/T1h), 1 hour. Here is the method:
(§1) The antibacterial efficacy was tested following the below Shake Flask protocol:
(§2) • Microbial strains: Staphylococcus aureus (SA) CIP 4.83, Escherichia Coli (EC) CIP 53.126, Pseudomonas Aeruginosa (PA) CIP 82.113 • Culture media: TSA medium-Neutralizing medium (Dey Engley Broth)-Buffered Peptoned water (BPW-F)-Shake flask bottles-Physiological water • Incubator Shake Flask Protocol: ASTM E2149 Shake Flask Method • Inoculum counting: • For each strain, prepare an inoculum at 0.5 Mc Farland (McF). Dilute 1 ml of the inoculum with 9 ml of physiological water. Select 1 ml of the resulting dilution and dilute again with 9 ml of physiological water. Execute 5 dilution steps accordingly so that a 10^−5 dilution is obtained. • Recover 100 microliter of the 10^−5 dilution and inoculate 2 petri dishes. • Add 20 ml of TSA medium. • Incubate at 32+/−0.5° C. during 24 hours • Negative control: • Put 5 ml of SA, EC or PA inoculums into a shake flask. Add 45 ml of pure BPW-F solution. • Dilute twice in neutralizing medium: Recover 1 ml of the pure solution and add 9 ml of the neutralizing medium (=10^−1 and 10^−2 dilution). • Wait 5 minutes and put 100 microliter of the pure solution and the 10^−2 dilution into 2 petri dishes, add 20 ml of TSA medium (T0). • Do the same operation after 1 hour (T1h). • Incubate at 32+/−0.5° C. during 24 hours • Sample testing: • Prepare a solution at a specified concentration (see data tables for actual concentrations as 100% active—final volume 50 ml). For example, for a 50% (V/V), dilute 25 ml of product with 20 ml of BPW-F and 5 ml of the inoculums (SA, EC or PA) at 0.5 McF. • Dilute twice in neutralizing medium: Recover 1 ml of the pure solution and add 9 ml of the neutralizing medium (=10^−1 and 10^−2 dilution). • Wait 5 minutes and put 100 microliter of the pure solution and the 10^−2 dilution into 2 petri dishes, add 20 ml of TSA medium (T0). • Do the same operation after 1 hour (T1h). • Incubate at 32+/−0.5° C. during 24 hours • Calculation of log reduction: • The log reduction is calculated as log(T0/T1h)

The test system of test [2] is Staphylococcus aureus (SA) CIP 4.83. Description: ASTM E2149 shake flask method, antibacterial log reduction, St. aureus. To be noted: log(T0/T1h), 1 hour. As for the experimental part: as §1, §2
In test [3] the test system is Pseudomonas Aeruginosa (PA) CIP 82.113. Put plainly: ASTM E2149 shake flask method, antibacterial log reduction, Ps. aeruginosa. To be noted: Ps Aeroginosa; tested active concentration 10%; log(T0/T1h), 1 hour. Here is the method:
as §1, §2

Where [4] appears, read: tested active concentration 0.1%.
Setting [5] is: St. Aureus, tested active concentration 0.1%.

In the case of `CCCCCCCCCCCC(=O)NCCC[N+](C)(C)[O-]` [CAP AO, cocoamidopropyl dimethyl amine oxide], the “Log reduction (tested active concentration)” value (shortened to “Log reduction”) in test [1] (tested active concentration 1%) is given as 0.37 (1%); in test [2] (St Aureus, tested active concentration 1%), 0.88 (1%); in test [3] it was 1.3 (10%).

Take `O=C([O-])[O-].[Zn+2]` [Zn2+, zinc carbonate]: the “Log reduction” value was 0.17 (0.1%) in test [1] (setting [4]), 0.18 (0.1%) in test [2] (setting [5]) and 0.27 (10%) in test [3].

As for “linear C12-14 alkyl dimethyl amine oxide [Linear AO]”, the “Log reduction” value in test [1] (setting [4]) is 0.41 (0.1%); in test [2] (setting [5]), 0.73 (0.1%); in test [3], 2.10 (10%).

On to “methyl branched dimethyl amine oxide [Shell type 1 Branched AO ( N terminal)]”, for which the results for the “Log reduction” value in test [2] (setting [5]) and in test [3] were 4.06 (0.1%) and 3.98 (10%), respectively.
